Assay [1] relates to tetrabenazine-induced depression. In words: Antagonism (prevention) of tetrabenazine-induced sedation and depression in mice, orally. The class given is in vivo, mice (Carworth CF1 S female). The note with it: tetrabenazine 32 mg/kg i.p. 30 min after compound; for ED50: Mus musculus, po, 1 h. The text has this: A standard procedure for detecting and comparing the antidepressant activity of the compounds of this invention, for which there is good correlation with human efficacy, is the prevention of tetrabenazine-induced sedation and depression in mice. (Everett, "The Dopa Response Potentiation Test and Its Use in Screening for Antidepressant Drugs", pp. 164-167 in Antidepressant Drugs [Proceedings of the First International Symposium], S. Garattini and M. N. G. Dukes (editors), 1967).
Groups of 10 Carworth CF1 S female mice, 18-21 g each, each fasted 1.5 h and were intubated with antagonist compounds at oral doses, such as 0, 1, 3, 9, 27 and 81 mg/kg in 0.20 mL of 1% Methocel® (methylcellulose).The mice were challenged 30 minutes later with tetrabenazine (as the methanesulfonate), 32 mg/kg intraperitoneally (dissolved in 0.20 mL 0.05% aqueous KCl at pH 2.0). One hour after administration of antagonist (30 minutes after administration of tetrabenazine) the mice were examined for signs of exploratory activity and ptosis (eye lid closure). Normal exploratory activity (relief from sedation) was recorded when a mouse, lifted by the tail from a group of 10 in a testing box and placed on a stainless steel testing box lid (12.5 inch (31.8 cm) by 8 inch (20.3 cm) with 0.33 inch mesh), either turned its head horizontally 30° in both directions or moved to the edge of the screen within 10 seconds after being placed on the screen. Relief from ptosis was recorded when, at exactly two seconds after placing the mouse facing the observer, lid closure was less than 50% in both eyes.

Assay [2] in a line: Anorexia test from CNS screen (milk consumption in fasted mice). Format: in vivo. The following applies: fasted female mice, 0.5 h after dosing, 30 min milk access, ED50 estimated from quantal responses; for ED50: Mus musculus, po, 0.5 h. The protocol: Female mice weighing 16-20 grams and fasted overnight for 17-21 h are used in these studies. At 0.5 h after administration of graded oral doses of compound prepared in aqueous Methocel® (methylcellulose, viscosity 100 CPS, grade MC, Dow Chemical Co.) and 2.8% Tween 80 and dosed at 0.1 mL per 10 grams of body weight, each mouse is transferred to an individual, clear, Lucite® compartment (13.3 cm×12.7 cm×12.7 cm) with a 0.64 cm×0.64 cm wire mesh floor. Five compartments are linearly arranged in each cage unit. Inside each compartment is a section of a black Lucite® bar (13 cm×1.2 cm×1.2 cm), in the top of which are ten spot depressions (0.8 cm diameter), each containing 0.05 mL of 50% sweetened condensed milk (Borden's Eagle Brand). 30 Minutes later the mice are returned to the "shoe-box" containers and the number of milk spots consumed by each mouse is counted. Fractions of spots consumed are also estimated and counted. Five mice […] per drug dose can drink a maximum of 50 spots (2.5 mL of milk). Nine or fewer spots consumed by 5 mice is considered to indicate anorexia. ED50 values are estimated based on the quantal responses obtained.

Assay [3] concerns tetrabenazine-induced depression. In words: Antagonism (prevention) of tetrabenazine-induced sedation and depression in mice, orally. Format: in vivo, mice (Carworth CF1 S female). The following applies: Mus musculus, po, footnote *: peak time values.
Setting [4] is: mice, oral, at one hour post-drug, 60 min.
The mark [5] stands for this setting: read-out: ORAL ED50 for prevention of exploratory loss, mice, oral, at one hour post-drug.
Setting [6] is: read-out: ORAL ED50 for prevention of ptosis, mice, oral, at one hour post-drug.

Structures are written as SMILES. Where two headings read alike, the source gives them in different places. Bounds are passed on as bounds.

Take `CN1CCC(c2cccc(C(F)(F)F)c2)(C(C)(C)O)CC1` [Example 2A, 4-(3'-Trifluoromethylphenyl)-α,α,1-trimethyl-4-piperidinemethanol]: in assay [1] (setting [4]), the “ORAL ED50 for prevention of exploratory loss” value was found to be 0.01 mg/kg and the “ORAL ED50 for prevention of ptosis” value worked out at 0.014 mg/kg. For the same molecule, the ED50 for anorexia in assay [2] (oral) is given as 36 mg/kg.

As usually defined, the ED50 is the dose that gives a 50% effect, or the effect in half of the subjects. In the case of `CCC(C)(O)C1(c2cccc(OC)c2)CCN(C)CC1` (stereo not drawn) [Example 17, 4-(3'-Methoxyphenyl)-α,1-dimethyl-α-ethyl-4-piperidinemethanol], the results for the ED50 in assay [1] (setting [5]), in assay [1] (setting [6]) and in assay [2] were 0.1 mg/kg, 0.11 mg/kg and 60 mg/kg, respectively.

On to `COc1cccc(C2(C(C)(C)O)CCN(C)CC2)c1` [Example 16, 4-(3'-Methoxyphenyl)-α,α,1-trimethyl-4-piperidinemethanol], for which the ED50 in assay [2] was 60 mg/kg; in assay [3] (read-out: ORAL ED50 for prevention of exploratory loss (peak time value), mice, oral), 0.12 mg/kg; in assay [3] (read-out: ORAL ED50 for prevention of ptosis (peak time value), mice, oral) it was 0.077 mg/kg.

For `COc1ccc2cc(C3(C(C)(C)O)CCN(C)CC3)ccc2c1` [Example 39, 4-(6'-Methoxy-2'-naphthyl)-α,α,1-trimethyl-4-piperidinemethanol], the ED50 is 0.33 mg/kg in assay [1] (setting [5]), less than 0.33 mg/kg in assay [1] (setting [6]) and 60 mg/kg in assay [2].

As to `COc1cccc(C2(C(C)(C)O)CCN(Cc3ccccc3)CC2)c1OC` [Example 37, 4-(2',3'-Dimethoxyphenyl)-1-benzyl-α,α-dimethyl-4-piperidinemethanol], the ED50 in assay [1] (setting [5]) was greater than 81 mg/kg; in assay [1] (setting [6]), 81 mg/kg; in assay [2], 60 mg/kg.

Regarding `CN1CCC(c2ccc(Oc3ccccc3)cc2)(C(C)(C)O)CC1` [Example 32, 4-(4'-Phenoxyphenyl)-α,α,1-trimethyl-4-piperidinemethanol], the ED50 in assay [1] (setting [5]) was greater than 81 mg/kg; in assay [1] (setting [6]) it was 81 mg/kg; in assay [2], 60 mg/kg.

Turning to `CCC(O)(CC)C1(c2cccc(Cl)c2)CCN(C)CC1` [Example 8, 4-(3'-Chlorophenyl)-α,α-diethyl-1-methyl-4-piperidinemethanol], the ED50 was 0.29 mg/kg in assay [1] (setting [5]), 0.26 mg/kg in assay [1] (setting [6]) and 20 mg/kg in assay [2].

In the case of `CN1CCC(c2cccc(C(F)(F)F)c2)(C2(O)CCCC2)CC1` [Example 30, 1-[1'-Methyl-4'-(3"-trifluoromethylphenyl)-4'-piperidinyl]cyclopentanol], the figures for the ED50 in assay [1] (setting [5]), in assay [1] (setting [6]) and in assay [2] were 0.17 mg/kg, 0.084 mg/kg and 60 mg/kg, respectively.

With `CN1CCC(c2ccc(Cl)cc2)(C(C)(C)O)CC1` [Example 7, 4-(4'-Chlorophenyl)-α,α,1-trimethyl-4-piperidinemethanol], the 50% effective dose (ED50) in assay [1] (setting [5]) is 0.57 mg/kg; in assay [1] (setting [6]), 0.33 mg/kg; in assay [2] it was 20 mg/kg.

For the molecule `CN1CCC(c2cccc(C(F)(F)F)c2)(C(C)(C)O)CC1` [Example 2, 4-(3'-Trifluoromethylphenyl)-α,α,1-trimethyl-4-piperidinemethanol], the ED50 in assay [1] (setting [5]) was 0.01 mg/kg; in assay [1] (setting [6]), 0.016 mg/kg; in assay [2], 60 mg/kg.

As to `CCC(C)(O)C1(c2cccc(C(F)(F)F)c2)CCN(C)CC1` (stereo not drawn) [Example 31, 4-(3'-Trifluoromethylphenyl)-α,1-dimethyl-α-ethyl-4-piperidinemethanol], the values for the ED50 in assay [1] (setting [5]), in assay [1] (setting [6]) and in assay [2] were 0.064 mg/kg, 0.056 mg/kg and 20 mg/kg, respectively.

Turning to `CN1CCC(c2cccc(F)c2)(C(C)(C)O)CC1` [Example 4, 4-(3'-Fluorophenyl)-α,α,1-trimethyl-4-piperidinemethanol], the results for the ED50 in assay [1] (setting [5]), in assay [1] (setting [6]) and in assay [2] were 0.2 mg/kg, 0.12 mg/kg and 60 mg/kg, respectively.

With `Cc1cccc(C2(C(C)(C)O)CCN(C)CC2)c1` [Example 10, 4-(3'-Tolyl)-α,α,1-trimethyl-4-piperidinemethanol], the ED50 in assay [1] (setting [5]) is 0.04 mg/kg; in assay [1] (setting [6]), 0.04 mg/kg; in assay [2], 20 mg/kg.

For the molecule `CN1CCC(c2cccc(Cl)c2)(C(C)(C)O)CC1` [Example 6, 4-(3'-Chlorophenyl)-α,α,1-trimethyl-4-piperidinemethanol], the ED50 is 0.04 mg/kg in assay [1] (setting [5]), 0.03 mg/kg in assay [1] (setting [6]) and 60 mg/kg in assay [2].

Take `CCN1CCC(c2cccc(C(F)(F)F)c2)(C(C)(C)O)CC1` [Example 41, 4-(3'-Trifluoromethylphenyl)-α,α-dimethyl-1-ethyl-4-piperidinemethanol]: the values for the ED50 in assay [1] (setting [5]), in assay [1] (setting [6]) and in assay [2] were 0.73 mg/kg, 0.46 mg/kg and 60 mg/kg, respectively.

The values above are taken from patent US4485109A, “4-Aryl-4-piperidinecarbinols” (E. I. Du Pont de Nemours and Company, priority 1983, dated 1984).
